These are literature values, as cited in PMC6791383, “A side-by-side evaluation of [^18F]FDOPA enantiomers for non-invasive detection of neuroendocrine tumors by positron emission tomography” (Oncotarget, 2019).

The subject of the series is LAT1. Set-up: method as in PMID 21770378, PMID 11901210, PMID 25205473, PMID 30048132. To be noted: cited from earlier work.

The IC50 is the concentration that gives 50% inhibition. On to `N[C@H](Cc1ccc(O)c(O)c1)C(=O)O` [D-DOPA, 3,4-dihydroxy-D-phenylalanine], for which the IC50 is 46 ± 23 µM.

On to `N[C@@H](Cc1ccc(O)c(O)c1)C(=O)O` [L-DOPA, 3,4-dihydroxy-L-phenylalanine], for which the IC50 is 69 ± 29 µM.
